We go through 24 compounds from patent US20210317092A1 (BAYER PHARMA AKTIENGESELLSCHAFT, priority 2016, published 2021).

Like-named read-outs stand apart in the source and are kept apart here.

The target in this experiment is T1, human Bradykinin B1 receptor (Homo sapiens, UniProt P46663).
T1 construct: host or cells: CHO-K1
T1 sequence (P46663 1-353): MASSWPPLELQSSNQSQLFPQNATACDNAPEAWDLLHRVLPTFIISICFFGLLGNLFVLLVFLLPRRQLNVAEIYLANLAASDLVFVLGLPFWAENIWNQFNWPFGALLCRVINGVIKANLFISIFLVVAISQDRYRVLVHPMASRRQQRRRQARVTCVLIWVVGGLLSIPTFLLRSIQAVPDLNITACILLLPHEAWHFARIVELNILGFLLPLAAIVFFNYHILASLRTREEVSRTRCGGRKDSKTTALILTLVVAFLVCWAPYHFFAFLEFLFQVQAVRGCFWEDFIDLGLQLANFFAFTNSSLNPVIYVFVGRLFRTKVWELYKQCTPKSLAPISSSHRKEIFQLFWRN
Kind of experiment: Calcium flux Assay (FLIPR) with recombinant CHO-K1 cells expressing human Bradykinin B1 receptor, in presence (hB1 IC50) or absence (hB1 free IC50) of 0.1% BSA. In kind it is cell-based. The method, then: The potency to inhibit the Bradykinin B1 receptor was determined for the compounds of this invention in a cell-based fluorescent calcium-mobilisation assay. The assay measures the ability of test compounds to inhibit Bradykinin B1 receptor agonist-induced increase of intracellular free Ca^2+ in the cell line expressing Bradykinin B1 receptor. […] The change of the intracellular Ca^2+ concentration is monitored with a fluorescent plate reader FLIPR TETRA® (Molecular Devices).
Calcium flux Assays (FLIPR) with cells expressing human Bradykinin B1 receptor (hB1)
CHO-K1 cell line expressing human Bradykinin B1 receptor was purchased from Euroscreen (Gosselies, Belgium, with reference name hB1-D1). The cells were grown in Nutrient Mixture Ham's F12 (Sigma) containing 10% Foetal bovine serum (Sigma) and 400 μg/mL G418 (Sigma), 5 μg/mL puromycim (Sigma). […]
Cells were seeded in a volume of 50 μL in medium without antibiotics and incubated overnight in a humidified atmosphere with 5% CO2 at 37° C. […] The calcium indicator loaded cells were incubated at 37° C. for 2 hrs. Extracellular dye was then removed and each well was filled with 45 μL of assay buffer. Cell plates were kept in dark until used. Compound examples were assayed at 8 concentrations in triplicate. Serial 10-fold dilutions in 100% DMSO were made at a 100-times higher concentration than the final concentration, and then diluted 1:10 in assay buffer. 5 μL of each diluted compound was added to the well of cell plates (yielding final concentration with 1% DMSO), and incubated for 30 min at 28° C. before the addition of Bradykinin B1 receptor agonist on the FLIPR instrument.
A peptide antagonist Lys-(Des-Arg-Leu)-Bradykinin (Bachem, Brackley) at 20 µM was used to determine the full inhibition as control.
Peak fluorescence was used to determine the response to agonist obtained at each concentration of compound examples by the following equation:
% Response=100*(RFU(compound)−RFU(control))/(RFU(DMSO)−RFU(control)) • RFU means relative fluorescence units. • Control means full inhibition by the peptide antagonist Lys-(Des-Arg-Leu)-Bradykinin at 20 µM.
The response values were plotted against the logarithm of the compound concentrations. The compound examples were tested in triplicates per plate and mean values were plotted in Excel XLfit to determine IC50 values, percentage of maximal inhibition and the Hill slopes.
In general terms: Calcium flux is commonly read through the fluorescence of an indicator in the cells.

Setting [1] is: in absence of 0.1% BSA, read-out: hB1 free IC50.
Where [2] appears, read: in presence of 0.1% BSA, read-out: hB1 IC50.

By IC50 is commonly meant the concentration needed to halve the response being measured. Consider `CCc1ccn(-c2ccc(NC(=O)C3(c4ccc(C(F)(F)F)cc4F)CC3)cc2-c2nnn[nH]2)n1` [Example 372, N-[4-(3-Ethyl-1H-pyrazol-1-yl)-3-(1H-tetrazol-5-yl)phenyl]-1-[2-fluoro-4-(trifluoromethyl)phenyl]cyclopro-panecarboxamide], for which, under setting [1], the IC50 came out at 31.1 nM.

With `CCOc1cncc(-c2ccc(NC(=O)C3(c4cccc(Cl)c4)CC3)cc2-c2nnn[nH]2)c1` [Example 318, 1-(3-chlorophenyl)-N-[4-(5-ethoxypyridin-3-yl)-3-(1H-tetrazol-5-yl)phenyl]cyclopro-panecarboxa-mide], the IC50 under setting [2] was 59.1 nM.

Turning to `O=C(Nc1ccc(-c2cc(F)cc(C(F)(F)F)c2)c(-c2nnn[nH]2)c1)C1(c2ccc(C(F)(F)F)cc2F)CC1` [Example 129, N-[3′-fluoro-2-(1H-tetrazol-5-yl)-5′-(trifluoromethyl)biphenyl-4-yl]-1-[2-fluoro-4-(trifluoromethyl)phenyl] cyclopropane-carboxamide], the IC50 under setting [1] worked out at 77.2 nM.

In the case of `Cc1cc(Cl)ccc1C1(C(=O)Nc2ccc(-c3ccc(C(F)(F)F)nc3)c(-c3nnn[nH]3)c2)CC1` [Example 290, 1-(4-chloro-2-methylphenyl)-N-{3-(1H-tetrazol-5-yl)-4-[6-(trifluoromethyl)pyridin-3-yl]phenyl}cyclopro-panecarboxa-mide], the IC50 under setting [1] worked out at 135 nM.

`COc1ccc(-c2ccc(NC(=O)C3(c4cccc(Cl)c4)CC3)cc2-c2nnn[nH]2)c(C)c1` [Example 118, 1-(3-chlorophenyl)-N-[4′-methoxy-2′-methyl-2-(1H-tetrazol-5-yl)biphenyl-4-yl]cyclopropane carboxamide]: the IC50 under setting [2] amounted to 1820 nM.

For `COc1ccc(-c2ccc(NC(=O)C3(c4ccccc4)CC3(C)C)cc2-c2nnn[nH]2)cc1OC` (stereo not drawn) [Example 7, N-[3′,4′-dimethoxy-2-(1H-tetrazol-5-yl)biphenyl-4-yl]-2,2-dimethyl-1-phenylcyclo-propane-carboxamide], the IC50 under setting [2] was 1350 nM.

With `CCOc1ncc(-c2ccc(NC(=O)C3(c4ccc(F)cc4F)CC3)cc2-c2nnn[nH]2)cc1C` [Example 162, 1-(2,4-difluorophenyl)-N-[4-(6-ethoxy-5-methylpyridin-3-yl)-3-(1H-tetrazol-5-yl)phenyl] cyclopropane-carboxamide], the IC50 under setting [2] came to 59 nM.

Turning to `CCC(F)(F)c1ccc(-c2ccc(NC(=O)C3(c4ccc(C)cc4F)CC3)cc2-c2nnn[nH]2)cn1` [Example 285, N-{4-[6-(1,1-difluoropropyl)py-ridin-3-yl]-3-(1H-tetrazol-5-yl)phenyl}-1-(2-fluoro-4-methylphenyl)cy-clopropanecar-boxamide], the IC50 under setting [1] is 15.8 nM.

On to `COc1ccc(-c2ccc(NC(=O)C3(c4ccc(C(F)(F)F)cc4F)CC3)cc2-c2nnn[nH]2)cc1OC` [Example 20, N-[3′,4′-dimethoxy-2-(1H-tetrazol-5-yl)biphenyl-4-yl]-1-[2-fluoro-4-(trifluoromethyl)phenyl] cyclopropane-carboxamide], for which the IC50 reads like this: under setting [1], 29.2 nM; under setting [2], 54.4 nM.

For the compound `O=C(Nc1ccc(-c2ccc(OCC(F)(F)F)nc2)c(-c2nnn[nH]2)c1)C1(c2cccc(Cl)c2)CC1` [Example 313, 1-(3-chlorophenyl)-N-{3-(1H-tetrazol-5-yl)-4-[6-(2,2,2-trifluoroethoxy)-pyridin-3-yl]phenyl}cyclopropanecarboxamide], under setting [2], the 50% inhibitory concentration (IC50) is 191 nM.

`CO[C@H]1CC[C@@H](c2ccc(NC(=O)C3(c4cccc(Cl)c4F)CC3)cc2-c2nnn[nH]2)CC1` [Example 189, 1-(3-chloro-2-fluorophenyl)-N-[4-(cis-4-methoxy-cyclohexyl)-3-(1H-tetrazol-5-yl)phenyl] cyclopropane-carboxamide]: the half-inhibitory concentration (IC50) under setting [1] was 2350 nM.

As for `N#Cc1cc(-c2ccc(NC(=O)C3(c4cccc(Cl)c4)CC3)cc2-c2nnn[nH]2)ccc1Cl` [Example 325, N-[4′-chloro-3′-cyano-2-(1H-tetrazol-5-yl)biphenyl-4-yl]-1-(3-chlorophenyl)cy-clopropanecarbox-amide], under setting [2], the concentration for half-maximal inhibition (IC50) is 1740 nM.

For `Cc1ccc(C2(C(=O)Nc3ccc(-n4cc(C(C)C)cn4)c(-c4nnn[nH]4)c3)CC2)c(F)c1` [Example 398, 1-(2-fluoro-4-methylphenyl)-N-[4-(4-isopropyl-1H-pyrazol-1-yl)-3-(1H-tetrazol-5-yl)phenyl]cyclopro-panecarboxa-mide], under setting [1], the IC50 is 20.6 nM.

For `O=C(Nc1ccc(-c2cnc(C(F)(F)F)nc2)c(-c2nnn[nH]2)c1)C1(c2cccc(Cl)c2F)CC1` [Example 197, 1-(3-chloro-2-fluorophenyl)-N-{3-(1H-tetrazol-5-yl)-4-[2-(trifluoromethyl)pyrimidin-5-yl]phenyl} cyclopropane-carboxamide], the IC50 under setting [1] is 493 nM and the 50% inhibitory concentration (IC50) under setting [2] is 993 nM.

Regarding `O=C(Nc1ccc(-n2ccc(CC(F)(F)F)n2)c(-c2nnn[nH]2)c1)C1(c2cccc(Cl)c2)CC1` [Example 386, 1-(3-chlorophenyl)-N-{3-(1H-tetrazol-5-yl)-4-[3-(2,2,2-trifluoroethyl)-1H-pyrazol-1-yl]phenyl}cyclopro-panecarboxa-mide], the 50% inhibitory concentration (IC50) under setting [1] was determined as 146 nM.

In the case of “1-[2-fluoro-4- (trifluoromethyl) phenyl]-N-[4- (4-isopropyl-1H- pyrazol-1-yl)-3- (1H-tetrazol-5- yl)phenyl]cyclopro- panecarboxa- mide [Example 399]”, the IC50 under setting [1] was found to be 5.16 nM.

With `O=C(Nc1ccc(-n2cc(C(F)(F)F)cn2)c(-c2nnn[nH]2)c1)C1(c2ccc(C(F)(F)F)cc2F)CC1` [Example 345, 1-[2-Fluoro-4-(trifluoromethyl)phenyl]-N-{3-(1H-tetrazol-5-yl)-4-[4-(trifluoromethyl)-1H-pyrazol-1-yl]phenyl}cyclopropanecarboxamide], under setting [1], the IC50 was determined as 28.5 nM.

With `O=C(Nc1ccc(-n2cc(C(F)(F)F)cn2)c(-c2nnn[nH]2)c1)C1(c2ccc(F)c(F)c2)CC1` [Example 351, 1-(3,4-Difluorophenyl)-N-{3-(1H-tetrazol-5-yl)-4-[4-(trifluoromethyl)-1H-pyrazol-1-yl]phenyl}cyclopro-panecarboxa-mide], under setting [1], the IC50 came out at 1060 nM.

`N#Cc1cncc(-c2ccc(NC(=O)C3(c4cccc(Cl)c4)CC3)cc2-c2nnn[nH]2)c1` [Example 336, 1-(3-chlorophenyl)-N-[4-(5-cyanopyridin-3-yl)-3-(1H-tetrazol-5-yl)phenyl]cyclopro-panecarboxa-mide]: the half-inhibitory concentration (IC50) under setting [2] is 1320 nM.

As for `O=C(Nc1ccc(-c2cncc(F)c2)c(-c2nnn[nH]2)c1)C1(c2cccc(Cl)c2)CC1` [Example 335, 1-(3-chlorophenyl)-N-[4-(5-fluoropyridin-3-yl)-3-(1H-tetrazol-5-yl)phenyl]cyclopro-panecarboxa-mide], the IC50 was determined as 298 nM under setting [1] and 517 nM under setting [2].

As to `COc1ccc(-c2cc(F)c(NC(=O)C3(c4ccc(Cl)cc4F)CC3)cc2-c2nnn[nH]2)cc1C` [Example 231, 1-(4-Chloro-2-fluorophenyl)-N-[5-fluoro-4′-methoxy-3′-methyl-2-(1H-tetrazol-5-yl)biphenyl-4-yl]cyclopropane carboxamide], the IC50 under setting [2] is 2200 nM.

`COc1ccc(-c2ccc(NC(=O)C3(c4ccc(C)cc4)CC3)cc2-c2nnn[nH]2)cc1` [Example 115, N-[4′-methoxy-2-(1H-tetrazol-5-yl)biphenyl-4-yl]-1-(4-methylphenyl) cyclopropane-carboxamide]: under setting [2], the IC50 was found to be 169 nM.

Turning to `Cc1ccc(C2(C(=O)Nc3ccc(-n4cc(C(F)(F)F)cn4)c(-c4nnn[nH]4)c3)CC2)c(F)c1` [Example 368, 1-(2-Fluoro-4-methylphenyl)-N-{3-(1H-tetrazol-5-yl)-4-[4-(trifluoromethyl)-1H-pyrazol-1-yl]phenyl}cyclopro-panecarboxa-mide], under setting [1], the 50% inhibitory concentration (IC50) worked out at 26 nM.

As to `CS(=O)(=O)c1ccc(-c2ccc(NC(=O)C3(c4ccc(C(F)(F)F)cc4F)CC3)cc2-c2nnn[nH]2)cn1` [Example 201, 1-[2-fluoro-4-(trifluoromethyl)phenyl]-N-{4-[6-(methylsulfonyl)pyridin-3-yl]-3-(1H-tetrazol-5-yl)phenyl} cyclopropane-carboxamide], the IC50 under setting [1] came to 374 nM.
